Columns and labels:
Assay type in all cases: in vivo
TUBO cells [1] = assay: TUBO tumors implanted s.c. in Balb/c (non-tolerant) mice, treatment from day 10; conditions: 20 μg/injection three times a week for three weeks; for antitumor effect (tumor rejection / tumor growth): i.t. injection, FIG. 1A; for antitumor effect: s.c. injection in the opposite flank, data not shown
Protocol: (§1) FIG. 1 contains graphic representations illustrating that intratumoral injections of CpG-ODN induce rejection of tumors in Balb/c, BALB-neuT and A2×neu mice. Balb/c and BALB-neuT were implanted s.c. with 10^6 TUBO cells, and A2×neu mice were implanted s.c. with 10^6 N202.A2 cells on day zero. On day 10, animals started treatment with i.t. injections of TLR-ligands three times a week (20 μg/injection) for three weeks. […]
(§2) For these experiments, Balb/c (non-tolerant) and BALB-neuT (tolerant) mice implanted with TUBO cells and A2×neu mice implanted with N202.A2 cells were used (it is important to remember that TUBO cells are tumorigenic in Balb/c and BALB-neuT mice, while N202.A2 cells are tumorigenic only in A2×neu mice but not in A2×FVB mice). It is well established that the injection of these ligands results in the activation of DCs, monocytes/macrophages, and B cells, and as a consequence of the activation of these cells, NK cell and T cell responses are stimulated. […] Balb/c and BALB-neuT mice were implanted s.c. with 10^6 TUBO cells, and A2×neu mice were implanted s.c. with 10^6 N202.A2 cells on day zero. On day 10, animals started treatment with s.c. injections of anti-CD40 mAb, Poly I:C, LPS, flagellin, imiquimod, CpG-ODN and control-ODN (as a control) in the opposite flank from where the tumor was injected, three times a week (20 μg/injection) for three weeks. […] It was decided to test whether intratumoral (i.t.) injection of TLR ligands would result in the induction of an antitumor response. The effect of i.t. injections of anti-CD40 mAb, Poly I:C, LPS, flagellin, imiquimod, CpG-ODN and control-ODN (as a control) three times a week (20 μg/injection) for three weeks was tested. […]
Evaluation of anti-neu-CpG-ODN (cleavable bond) vs. anti-neu-CpG-ODN (non-cleavable bond). In determining the effectiveness of the conjugates of the present invention, the antitumor effects of anti-neu-CpG-ODN generated with a cleavable bond or non-cleavable bond were evaluated. Anti-neu-CpG-ODN generated with a non-cleavable bond was produced by the reaction pathway shown in FIG. 7A and contained a hydrazone linkage between the Anti-neu antibody and the CpG-ODN. Anti-neu-CpG-ODN generated with a cleavable bond was produced by the reaction pathway shown in FIG. 7B and contained a disulfide cleavable linkage. TUBO cells (1×10^6) were implanted s.c. on day zero on Balb/c. Starting on day 10, animals were injected intratumorally with 30 μg/injection of each of the anti-neu-CpG-ODN molecules three times a week for three weeks.

N202.A2 cells = assay: N202.A2 tumors implanted s.c. in A2×neu mice, treatment with TLR ligands from day 10; conditions: 20 μg/injection three times a week for three weeks; for antitumor effect (tumor rejection / tumor growth): i.t. injection, FIG. 1C; for antitumor effect: s.c. injection in the opposite flank, data not shown
Protocol: FIG. 1 contains graphic representations illustrating that intratumoral injections of CpG-ODN induce rejection of tumors in Balb/c, BALB-neuT and A2×neu mice. Balb/c and BALB-neuT were implanted s.c. with 10^6 TUBO cells, and A2×neu mice were implanted s.c. with 10^6 N202.A2 cells on day zero. On day 10, animals started treatment with i.t. injections of TLR-ligands three times a week (20 μg/injection) for three weeks.
For these experiments, Balb/c (non-tolerant) and BALB-neuT (tolerant) mice implanted with TUBO cells and A2×neu mice implanted with N202.A2 cells were used (it is important to remember that TUBO cells are tumorigenic in Balb/c and BALB-neuT mice, while N202.A2 cells are tumorigenic only in A2×neu mice but not in A2×FVB mice). It is well established that the injection of these ligands results in the activation of DCs, monocytes/macrophages, and B cells, and as a consequence of the activation of these cells, NK cell and T cell responses are stimulated. […] Balb/c and BALB-neuT mice were implanted s.c. with 10^6 TUBO cells, and A2×neu mice were implanted s.c. with 10^6 N202.A2 cells on day zero. On day 10, animals started treatment with s.c. injections of anti-CD40 mAb, Poly I:C, LPS, flagellin, imiquimod, CpG-ODN and control-ODN (as a control) in the opposite flank from where the tumor was injected, three times a week (20 μg/injection) for three weeks. […] It was decided to test whether intratumoral (i.t.) injection of TLR ligands would result in the induction of an antitumor response. The effect of i.t. injections of anti-CD40 mAb, Poly I:C, LPS, flagellin, imiquimod, CpG-ODN and control-ODN (as a control) three times a week (20 μg/injection) for three weeks was tested.

TUBO cells [2] = assay: TUBO tumors implanted s.c. in BALB-neuT (tolerant) mice, treatment from day 10; conditions: 20 μg/injection three times a week for three weeks; for antitumor effect (tumor rejection / tumor growth): i.t. injection, FIG. 1B; for antitumor effect: s.c. injection in the opposite flank, data not shown
Protocol: as §1, §2

Row | Compound | antitumor effect (tumor rejection / tumor growth) (TUBO cells [1]) | antitumor effect (TUBO cells [1]) | antitumor effect (tumor rejection / tumor growth) (N202.A2 cells) | antitumor effect (N202.A2 cells) | antitumor effect (tumor rejection / tumor growth) (TUBO cells [2]) | antitumor effect (TUBO cells [2])
1 | CC(C)Cn1cnc2c(N)nc3ccccc3c21 [imiquimod] | did not have any effect in controlling the tumor growth | no antitumor effect | did not have any effect in controlling the tumor growth | no antitumor effect | did not have any effect in controlling the tumor growth | no antitumor effect
2 | Poly I:C | induced the rejection of tumors | no antitumor effect | – | no antitumor effect | – | no antitumor effect
3 | flagellin | did not have any effect in controlling the tumor growth | no antitumor effect | did not have any effect in controlling the tumor growth | no antitumor effect | did not have any effect in controlling the tumor growth | no antitumor effect

Source: patent publication US20080031887A1, “Conjugates for inducing targeted immune responses and methods of making and using same” (priority 2006, published 2008)
